Assay results reported in patent US20250059207A1, “6,6-FUSED HETEROCYCLIC COMPOUNDS AS METTL3 INHIBITORS” (858 Therapeutics, Inc., priority 2021, published 2025).

test system: MOLM-13 cells; experiment: Viability assay in MOLM-13 cells (CellTiter-Glo 2.0); assay type: cell-based, human; conditions: MOLM-13 human AML cells, 72 hours, CellTiter-Glo 2.0; read-out: MOLM-13 IC50 (cell viability)

Compound | IC50 [µM]
O=c1c2cncc(N3CC4(CCOCC4)C3)c2ccn1Cc1cn2cc(CN3CCC4(CC3)CC4)ccc2n1 [Compound 127, 2-{[6-({6-azaspiro[2.5]octan-6-yl}methyl)imidazo[1,2-a]pyridin-2-yl]methyl}-5-{7-oxa-2-azaspiro[3.5]nonan-2-yl}-1,2-dihydro-2,7-naphthyridin-1-one] | 1 to 10
CC1(C)CCN(Cc2ccc3nc(Cn4ccc5c(N6CCOCC6)cncc5c4=O)cn3c2)CC1 [Compound 113, 2-({6-[(4,4-dimethylpiperidin-1-yl)methyl]imidazo[1,2-a]pyridin-2-yl}methyl)-5-(morpholin-4-yl)-1,2-dihydro-2,7-naphthyridin-1-one] | 1 to 10
CC1CCC(CNCc2ccc3nc(Cn4ccc5c(-c6ccccc6)cncc5c4=O)cn3c2)CC1 (stereo not drawn) [Compound 85, 2-((6-((((4-methylcyclohexyl)methyl)amino)methyl)imidazo[1,2-a]pyridin-2-yl)methyl)-5-phenyl-2,7-naphthyridin-1(2H)-one] | 1 to 10
O=c1c2cncc(N3CC4(CCC4)C3)c2ccn1Cc1cn2cc(CNCC3CC(F)C3)ccc2n1 (stereo not drawn) [Compound 110, 2-((6-((((3-fluorocyclobutyl)methyl)amino)methyl)imidazo [1,2-a]pyridin-2-yl)methyl)-5-(2-azaspiro[3.3]heptan-2-yl)-2,7-naphthyridin-1(2H)-one] | 1 to 10
O=c1c2cncc(N3CC4(CCOCC4)C3)c2ccn1Cc1cn2cc(CN3CC4(CCC4)C3)ccc2n1 [Compound 128, 2-{[6-({2-azaspiro[3.3]heptan-2-yl}methyl)imidazo[1,2-a]pyridin-2-yl]methyl}-5-{7-oxa-2-azaspiro[3.5]nonan-2-yl}-1,2-dihydro-2,7-naphthyridin-1-one] | 1 to 10
Cc1ccc2nc(Cn3ccc4c(C5CC5)cncc4c3=O)cn2c1 [Compound 11, 5-cyclopropyl-2-((6-methylimidazo[1,2-a]pyridin-2-yl)methyl)-2,7-naphthyridin-1(2H)-one] | > 10
NC(=O)c1ccc(-c2cncc3c(=O)n(Cc4cn5cc(CNCC67CC(F)(C6)C7)ccc5n4)ccc23)cc1 [Compound 155, 4-{7-[(6-{[({3-fluorobicyclo[1.1.1]pentan-1-yl}methyl)amino]methyl}imidazo[1,2-a]pyridin-2-yl)methyl]-8-oxo-7,8-dihydro-2,7-naphthyridin-4-yl}benzamide] | 1 to 10
CCOc1cncc2c(=O)n(Cc3cn4cc(C)ccc4n3)ccc12 [Compound 3, 5-ethoxy-2-((6-methylimidazo[1,2-a]pyridin-2-yl)methyl)-2,7-naphthyridin-1(2H)-one] | > 10
CC1(C#N)CCN(Cc2ccc3nc(Cn4ccc5c(N6CC7(CCOCC7)C6)cncc5c4=O)cn3c2)CC1 [Compound 134, 4-methyl-1-({2-[(5-{7-oxa-2-azaspiro[3.5]nonan-2-yl}-1-oxo-1,2-dihydro-2,7-naphthyridin-2-yl)methyl]imidazo[1,2-a]pyridin-6-yl}methyl)piperidine-4-carbonitrile] | > 10
Cc1ccc(CNCc2ccc3nc(Cn4ccc5c(-c6ccccc6)cncc5c4=O)cn3c2)cc1 [Compound 86, 2-((6-(((4-methylbenzyl)amino)methyl)imidazo[1,2-a]pyridin-2-yl)methyl)-5-phenyl-2,7-naphthyridin-1(2H)-one] | 1 to 10
O=c1c2cncc(-c3ccccc3)c2ccn1Cc1cn2cc(CNCc3ccccc3)ccc2n1 [Compound 72, 2-((6-((benzylamino)methyl)imidazo[1,2-a]pyridin-2-yl)methyl)-5-phenyl-2,7-naphthyridin-1(2H)-one] | 1 to 10
O=c1c2cncc(-c3ccccc3)c2ccn1Cc1cn2cc(CNc3ccccn3)ccc2n1 [Compound 100, 5-phenyl-2-((6-((pyridin-2-ylamino)methyl)imidazo[1,2-a]pyridin-2-yl)methyl)-2,7-naphthyridin-1(2H)-one] | 1 to 10
O=c1c2cncc(N3CC(c4ccc(F)cc4)C3)c2ccn1Cc1cn2cc(CNCC3CC(F)C3)ccc2n1 (stereo not drawn) [Compound 150, 2-{[6-({[(3-fluorocyclobutyl)methyl]amino}methyl)imidazo[1,2-a]pyridin-2-yl]methyl}-5-[3-(4-fluorophenyl)azetidin-1-yl]-1,2-dihydro-2,7-naphthyridin-1-one] | 1 to 10
CC(=O)Nc1ccc(-c2cncc3c(=O)n(Cc4cn5cc(CNCC6CC(F)C6)ccc5n4)ccc23)cn1 (stereo not drawn) [Compound 87, N-(5-(7-((6-((((3-fluorocyclobutyl)methyl)amino)methyl)imidazo[1,2-a]pyridin-2-yl)methyl)-8-oxo-7,8-dihydro-2,7-naphthyridin-4-yl)pyridin-2-yl)acetamide] | 1 to 10
CC1(C)CCN(Cc2ccc3nc(Cn4ccc5c(N6CC7COCC7C6)cncc5c4=O)cn3c2)CC1 (stereo not drawn) [Compound 117, 2-({6-[(4,4-dimethylpiperidin-1-yl)methyl]imidazo[1,2-a]pyridin-2-yl}methyl)-5-{hexahydro-1H-furo[3,4-c]pyrrol-5-yl}-1,2-dihydro-2,7-naphthyridin-1-one] | > 10

Further lines, results first:

IC50 [µM] | Compound
> 10 | Cc1ccc2nc(Cn3ccc4c(-c5ccccc5C#N)cncc4c3=O)cn2c1 [Compound 28, 2-(7-((6-methylimidazo[1,2-a]pyridin-2-yl)methyl)-8-oxo-7,8-dihydro-2,7-naphthyridin-4-yl)benzonitrile]
> 10 | Cc1ccc2nc(Cn3ccc4c(C#CC5CC5)cncc4c3=O)cn2c1 [Compound 46, 5-(cyclopropylethynyl)-2-((6-methylimidazo[1,2-a]pyridin-2-yl)methyl)-2,7-naphthyridin-1(2H)-one]
1 to 10 | O=c1c2cncc(-c3ccccc3)c2ccn1Cc1cn2cc(CNC3(c4ccccc4)CCC3)ccc2n1 [Compound 80, 5-phenyl-2-((6-(((1-phenylcyclobutyl)amino)methyl)imidazo[1,2-a]pyridin-2-yl)methyl)-2,7-naphthyridin-1(2H)-one]
1 to 10 | O=c1c2cncc(N3CC4(CCOCC4)C3)c2ccn1Cc1cn2cc(CN3CCC4(CCC4)CC3)ccc2n1 [Compound 129, 2-((6-((7-azaspiro[3.5]nonan-7-yl)methyl)imidazo[1,2-a]pyridin-2-yl)methyl)-5-(7-oxa-2-azaspiro[3.5]nonan-2-yl)-2,7-naphthyridin-1(2H)-one]
1 to 10 | Cc1ccc2nc(Cn3cc(C)c4ccncc4c3=O)cn2c1 [Compound 49, 4-methyl-2-((6-methylimidazo[1,2-a]pyridin-2-yl)methyl)-2,7-naphthyridin-1(2H)-one]
1 to 10 | O=c1c2cncc(N3CC4(CCOCC4)C3)c2ccn1Cc1cn2cc(CN3CCC4(CCCC4)C3)ccc2n1 [Compound 137]
> 10 | CC1(C)CCN(Cc2ccc3nc(Cn4ccc5c(N6CC7(C6)CC(F)(F)C7)cncc5c4=O)cn3c2)CC1 [Compound 111, 5-{6,6-difluoro-2-azaspiro[3.3]heptan-2-yl}-2-({6-[(4,4-dimethylpiperidin-1-yl)methyl]imidazo[1,2-a]pyridin-2-yl}methyl)-1,2-dihydro-2,7-naphthyridin-1-one]
> 10 | O=c1c2cncc(-c3ccccc3)c2ccn1Cc1cn2cc(CNCC3(F)CCC3)ccc2n1 [Compound 75, 2-((6-((((1-fluorocyclobutyl)methyl)amino)methyl)imidazo[1,2-a]pyridin-2-yl)methyl)-5-phenyl-2,7-naphthyridin-1(2H)-one]
> 10 | CC1(C)CCN(Cc2ccc3nc(Cn4ccc5c(C#Cc6ccncc6)cncc5c4=O)cn3c2)CC1 [Compound 124, 2-((6-((4,4-dimethylpiperidin-1-yl)methyl)imidazo[1,2-a]pyridin-2-yl)methyl)-5-(pyridin-4-ylethynyl)-2,7-naphthyridin-1(2H)-one]
> 10 | O=c1c2cnccc2ccn1Cc1cn2cc(CNCC3CCCCC3)ccc2n1 [Compound 71, 2-((6-(((cyclohexylmethyl)amino)methyl)imidazo[1,2-a]pyridin-2-yl)methyl)-2,7-naphthyridin-1(2H)-one]
> 10 | Cc1ccc2nc(Cn3ccc4c(-c5cccnc5)cncc4c3=O)cn2c1 [Compound 17, 2-((6-methylimidazo[1,2-a]pyridin-2-yl)methyl)-5-(pyridin-3-yl)-2,7-naphthyridin-1(2H)-one]
> 10 | Cc1ccc2nc(Cn3ccc4c(N5CC(c6ccccc6)C5)cncc4c3=O)cn2c1 [Compound 7, 2-((6-methylimidazo[1,2-a]pyridin-2-yl)methyl)-5-(3-phenylazetidin-1-yl) 2,7-naphthyridin-1(2H)-one]
1 to 10 | O=c1c2cncc(-c3ccccc3)c2ccn1Cc1cn2cc(CNc3cc(N4CCOCC4)ccn3)ccc2n1 [Compound 102, 2-{[6-({[4-(morpholin-4-yl)pyridin-2-yl]amino}methyl)imidazo[1,2-a]pyridin-2-yl]methyl}-5-phenyl-1,2-dihydro-2,7-naphthyridin-1-one]
1 to 10 | O=c1c2cncc(-c3ccccc3)c2ccn1Cc1cn2cc(CNCC3CCCC3)ccc2n1 [Compound 76, 2-((6-(((cyclopentylmethyl)amino)methyl)imidazo[1,2-a]pyridin-2-yl)methyl)-5-phenyl-2,7-naphthyridin-1(2H)-one]
1 to 10 | O=c1c2cncc(N3CC4(CCOCC4)C3)c2ccn1Cc1cn2cc(CN3CCC4(C3)CC(F)(F)C4)ccc2n1 [Compound 140, 2-{[6-({2,2-difluoro-6-azaspiro[3.4]octan-6-yl}methyl)imidazo[1,2-a]pyridin-2-yl]methyl}-5-{7-oxa-2-azaspiro[3.5]nonan-2-yl}-1,2-dihydro-2,7-naphthyridin-1-one]
> 10 | Cc1ccc2nc(Cn3ccc4c(-c5c(F)cccc5F)cncc4c3=O)cn2c1 [Compound 29, 5-(2,6-difluorophenyl)-2-((6-methylimidazo[1,2-a]pyridin-2-yl)methyl)-2,7-naphthyridin-1(2H)-one]
1 to 10 | O=c1c2cncc(N3CC(c4ccncc4)C3)c2ccn1Cc1cn2cc(CNCC3CC(F)C3)ccc2n1 (stereo not drawn) [Compound 149, 2-{[6-({[(3-fluorocyclobutyl)methyl]amino}methyl)imidazo[1,2-a]pyridin-2-yl]methyl}-5-[3-(pyridin-4-yl)azetidin-1-yl]-1,2-dihyro-2,7-naphthyridin-1-one]
> 10 | Cc1ccc2nc(Cn3ccc4c(N5CCCCC5)cncc4c3=O)cn2c1 [Compound 10, 2-((6-methylimidazo[1,2-a]pyridin-2-yl)methyl)-5-(piperidin-1-yl)-2,7-naphthyridin-1(2H)-one]
